Experimental data from patent US8003660B2, “Modulators of muscarinic receptors” (Vertex Pharmaceuticals Incorporated, priority 2006, dated 2011).
Read-outs that look alike come from different tables or passages of the source.

Columns and labels:
Format in all cases: cell-based
M2 muscarinic receptor = biological target: T1, M2 muscarinic receptor (Homo sapiens, UniProt P08172); assay: Functional mobilization of intracellular calcium (FLIPR) in CHO cells expressing M2; conditions: for EC50: CHO cells expressing M2, FLIPR calcium; for Emax: CHO; for M2 Activity: CHO cells expressing M2, FLIPR calcium assay
T1 construct: expressed in transfected cells; host or cells: CHO (M2-CHO)
T1 sequence (P08172 1-466): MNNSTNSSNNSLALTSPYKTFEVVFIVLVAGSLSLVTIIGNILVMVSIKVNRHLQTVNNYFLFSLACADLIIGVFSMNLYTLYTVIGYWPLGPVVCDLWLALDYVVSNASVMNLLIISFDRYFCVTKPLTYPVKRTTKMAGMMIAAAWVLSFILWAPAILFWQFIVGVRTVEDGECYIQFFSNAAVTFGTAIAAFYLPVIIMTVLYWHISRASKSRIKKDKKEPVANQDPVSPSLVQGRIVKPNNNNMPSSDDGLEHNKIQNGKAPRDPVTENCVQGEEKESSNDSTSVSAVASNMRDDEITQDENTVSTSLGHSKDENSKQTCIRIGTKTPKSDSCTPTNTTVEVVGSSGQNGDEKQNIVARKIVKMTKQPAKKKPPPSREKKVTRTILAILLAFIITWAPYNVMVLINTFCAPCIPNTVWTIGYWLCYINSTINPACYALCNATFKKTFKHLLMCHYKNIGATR
Method: (§1) Functional Mobilization of Intracellular Calcium to Determine Muscarinic Receptor Activity:
(§2) CHO cells expressing muscarinic receptors (M1 to M5) are grown as monolayers in tissue culture flasks at 37° C. in a humidified atmosphere containing 5% CO2 and passaged every 3-5 days. The growth media is Dulbecco's modified eagles medium (DMEM, Gibco Cat# 12430-054), containing 25 mM Hepes and supplemented with Fetal Bovine Serum (Hyclone, cat# SH30071.03), 0.1 mM of MEM non-essential amino acids (GIBCO, Cat# 11140-050), 1 mM MEM Sodium Pyruvate (GIBCO Cat# 11360-070) and 100 units/ml of Penicillin G and 100 μg/ml of Streptomycin (GIBCO Cat# 15140-122). The recombinant muscarinic receptor cell lines are grown under antibiotic pressure with media containing 25 μg/ml zeocin and 500 μg/ml G418 (M1-CHO), 4 μg/ml puromycin, 50 μg/ml zeocin and 2.5 μg/ml blasticidin (M2 and M4-CHO) or 50 μg/ml zeocin and 4 μg/ml puromycin (M3 and M5-CHO).
(§3) Cells are harvested at 80-90% confluence using Versene (GIBCO Cat# 15040-066), collected by centrifugation and seeded 18-24 hrs prior to running the calcium assay at a density of 5,000-10,000 cells/well in […], clear-bottomed 384-well plates (BD Biocoat, poly-D-lysine, Cat#356663). The day of the experiment, the cells are washed with a plate washer (Bioteck Instruments, ELX 405) using bath 1 buffer (140 mM NaCl, 4,5 mM KCl, 2 mM CaCl2, 1 mM MgCl2, 10 mM Hepes-Na, 10 mM Glucose, pH 7.4, with NaOH) containing 1 mM Probenecid. Next, the calcium dye Fluo-3 (25 μl/well of Fluo-3 AM at 4 μM, Molecular Probes F-1241, in Bath 1 buffer containing 1 mM Probenecid) is added to the 25 μl of Bath 1 remaining in each well after the plate wash and the dye is loaded at 37° C. in the tissue culture incubator for 60-90 min. The fluorescent dye is removed using the plate washer with Bath 1 containing 1 mM Probenecid, leaving 25 μl/well of this solution after the wash. Alternatively, cells can be loaded with the calcium indicator from Molecular Devices (Calcium 3 Assay Reagents, Cat #R7181) adding 5 μl of a 5× solution dye in Bath 1 containing 1 mM Probenecid (10 ml per dye flask cat#R7182 to generate a solution […]) to 20 μl of the same buffer. After loading for 60 min, the experiment can be run without having to remove the dye.
(§4) Compounds are prepared at a 2× fold concentration in a 96-well plate (round bottom, Costar Corning cat#3656), by reconstituting the pre-spotted compounds in bath 1 containing 1 mM probenecid. The final concentration DMSO is 0.5%, and the amount of DMSO is normalized across the assay plate. To determine an agonist action of the compounds on muscarinic receptors, the reconstituted compounds are added (25 μl compound/well) to the cell assay plate (containing 25 μl/well) using the multi-channel robotic system of the FLIPR 3 Instrument (Molecular Devices, Sunnyvale, Calif.). To determine a functional inhibitory action of the compounds on muscarinic receptors, the reconstituted compounds are added (25 μl compound/well) to the assay plate and pre-incubated for 15 min prior to adding 25 μl of Carbachol at 3× the EC80 for each muscarinic subtype. Alternatively, the compounds can be co-applied simultaneously with the agonist. In both assay modes, the fluorescence is recorded for 60 sec (excitation wavelength is […] and emission wavelength 540 nm) using the FLIPR 3 instrument.
(§5) The potency, efficacy and selectivity of the muscarinic compounds were evaluated by screening the compound activity across the whole family (M1 to M5 cells). Compounds were also screened for activity on other proteins such as other GPCRs and ion channels to determine selectivity on M4 receptors.

M3 muscarinic receptor = biological target: T2, M3 muscarinic receptor (Homo sapiens, UniProt P20309); assay: Functional mobilization of intracellular calcium (FLIPR) in CHO cells expressing M3; conditions: for EC50: CHO cells expressing M3, FLIPR calcium; for Emax: CHO
T2 construct: expressed in transfected cells; host or cells: CHO (M3-CHO)
T2 sequence (P20309 whole entry): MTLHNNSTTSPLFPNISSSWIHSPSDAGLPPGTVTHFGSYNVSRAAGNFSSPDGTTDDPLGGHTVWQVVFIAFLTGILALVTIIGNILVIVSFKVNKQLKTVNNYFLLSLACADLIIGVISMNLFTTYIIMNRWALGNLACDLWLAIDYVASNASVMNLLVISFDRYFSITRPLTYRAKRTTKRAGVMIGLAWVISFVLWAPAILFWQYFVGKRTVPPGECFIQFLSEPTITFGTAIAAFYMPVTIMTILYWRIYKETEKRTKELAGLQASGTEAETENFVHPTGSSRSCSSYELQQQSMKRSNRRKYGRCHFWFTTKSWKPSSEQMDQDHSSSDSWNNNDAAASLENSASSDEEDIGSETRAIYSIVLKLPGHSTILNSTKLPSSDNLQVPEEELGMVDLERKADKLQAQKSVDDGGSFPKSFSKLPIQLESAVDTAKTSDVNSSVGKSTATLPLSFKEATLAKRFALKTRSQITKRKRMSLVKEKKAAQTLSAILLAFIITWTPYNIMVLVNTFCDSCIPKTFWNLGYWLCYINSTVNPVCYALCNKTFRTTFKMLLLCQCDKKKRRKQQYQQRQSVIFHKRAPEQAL
Method: as §1, §2, §3, §4, §5

M1 muscarinic receptor = biological target: T3, M1 muscarinic receptor (Homo sapiens, UniProt P11229); assay: Functional mobilization of intracellular calcium (FLIPR) in CHO cells expressing M1; conditions: for EC50: CHO cells expressing M1, FLIPR calcium; for Emax: CHO; for M1 Activity: CHO cells expressing M1, FLIPR calcium assay
T3 construct: expressed in transfected cells; host or cells: CHO (M1-CHO)
T3 sequence (P11229 1-460): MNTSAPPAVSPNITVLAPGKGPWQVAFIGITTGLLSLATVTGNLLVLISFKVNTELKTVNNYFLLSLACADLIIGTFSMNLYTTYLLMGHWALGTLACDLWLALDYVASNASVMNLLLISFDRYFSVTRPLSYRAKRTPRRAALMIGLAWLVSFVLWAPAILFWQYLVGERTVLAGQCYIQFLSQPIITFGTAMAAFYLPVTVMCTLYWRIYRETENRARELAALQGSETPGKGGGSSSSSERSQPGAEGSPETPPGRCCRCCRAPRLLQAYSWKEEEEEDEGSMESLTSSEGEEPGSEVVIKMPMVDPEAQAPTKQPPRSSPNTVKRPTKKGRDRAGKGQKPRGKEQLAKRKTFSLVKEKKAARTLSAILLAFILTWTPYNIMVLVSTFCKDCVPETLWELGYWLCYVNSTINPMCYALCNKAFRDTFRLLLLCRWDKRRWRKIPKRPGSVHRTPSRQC
Method: as §1, §2, §3, §4, §5

M4 muscarinic receptor = biological target: T4, M4 muscarinic receptor (Homo sapiens, UniProt P08173); assay: Functional mobilization of intracellular calcium (FLIPR) in CHO cells expressing M4; conditions: for EC50: CHO cells expressing M4, FLIPR calcium; for Emax: CHO; for M4 Activity: CHO cells expressing M4, FLIPR calcium assay
T4 construct: expressed in transfected cells; host or cells: CHO (M4-CHO)
T4 sequence (P08173 1-479): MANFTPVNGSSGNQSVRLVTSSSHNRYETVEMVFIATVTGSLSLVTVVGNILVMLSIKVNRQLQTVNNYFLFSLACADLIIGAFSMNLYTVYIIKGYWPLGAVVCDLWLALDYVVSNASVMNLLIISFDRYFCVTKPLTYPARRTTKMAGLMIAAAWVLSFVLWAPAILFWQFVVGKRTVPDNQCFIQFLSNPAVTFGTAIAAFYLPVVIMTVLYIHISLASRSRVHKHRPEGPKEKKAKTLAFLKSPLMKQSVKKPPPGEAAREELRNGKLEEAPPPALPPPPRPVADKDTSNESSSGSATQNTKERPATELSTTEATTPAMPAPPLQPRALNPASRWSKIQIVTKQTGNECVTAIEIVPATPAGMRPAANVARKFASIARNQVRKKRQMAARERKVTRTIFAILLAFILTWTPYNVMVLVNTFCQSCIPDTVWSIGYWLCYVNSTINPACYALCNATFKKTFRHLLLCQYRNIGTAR
Method: as §1, §2, §3, §4, §5

[1] = 100% = maximum response obtained with the Carbachol control, read-out: M2 Efficacy
[2] = 100% = maximum response obtained with the Carbachol control, read-out: M3 Efficacy
[3] = 100% = maximum response obtained with the Carbachol control, read-out: M1 Efficacy
[4] = 100% = maximum response obtained with the Carbachol control, read-out: M4 Efficacy
[5] = 100% efficacy = maximum response obtained with the Carbachol control

Row | SMILES | EC50 (M2 muscarinic receptor) [µM] | Emax (M2 muscarinic receptor; [1]) [%] | EC50 (M3 muscarinic receptor) [µM] | Emax (M3 muscarinic receptor; [2]) [%] | EC50 (M1 muscarinic receptor) [µM] | Emax (M1 muscarinic receptor; [3]) [%] | EC50 (M4 muscarinic receptor) [µM] | Emax (M4 muscarinic receptor; [4]) [%] | M2 Activity (M2 muscarinic receptor) | Emax (M2 muscarinic receptor; [5]) [%] | M3 Activity (M3 muscarinic receptor; CHO cells expressing M3, FLIPR calcium assay) | Emax (M3 muscarinic receptor; [5]) [%] | M1 Activity (M1 muscarinic receptor) | Emax (M1 muscarinic receptor; [5]) [%] | M4 Activity (M4 muscarinic receptor) | Emax (M4 muscarinic receptor; [5]) [%]
1 | CCC(CC)N1CCC2(CC[C@H](NC(C)=O)c3ccccc32)CC1 [Compound No. 61, (S)N-(1′-(pentan-3-yl)-3,4-dihydro-2H-spiro[naphthalene-1,4′-piperidine]-4-yl)acetamide] | > 5 | < 25 | > 5 | < 25 | > 5 | 25 to 100 | > 5 | 25 to 100 |  |  |  |  |  |  |  | 
2 | CC(=O)N[C@H]1CCC2(CCN(CC(=O)C(C)(C)C)CC2)c2ccccc21 [Compound No. 130, (S)-N-(1′-(3,3-dimethyl-2-oxobutyl)-3,4-dihydro-2H-spiro[naphthalene-1,4′-piperidine]-4-yl)acetamide] | > 5 | < 25 | > 5 | < 25 | 2 to 5 | 25 to 100 | < 2 | 25 to 100 |  |  |  |  |  |  |  | 
3 | CC(=O)N[C@H]1CCC2(CCN(CCC(C)(C)C)CC2)c2ccccc21 [Compound No. 190, (S)-N-(1′-(3,3-dimethylbutyl)-3,4-dihydro-2H -spiro[naphthalene-1,4′-piperidine]-4-yl)acetamide] |  |  |  |  |  |  |  |  | +++ (activity was measured to be less than 2.0 μM) | 25 to 100 | + (activity was measured to be greater than 5.0 μM) | < 25 | +++ (activity was measured to be less than 2.0 μM) | 25 to 100 | +++ (activity was measured to be less than 2.0 μM) | 25 to 100
4 | CC(C)(C)CCN1CCC2(CC[C@H](NS(C)(=O)=O)c3ccccc32)CC1 [compound 1] | 2 to 5 | < 25 | > 5 | < 25 | < 2 | 25 to 100 | < 2 | 25 to 100 |  |  |  |  |  |  |  | 
5 | Cc1cc(C(=O)N[C@H]2CCC3(CCN(CCC(C)(C)C)CC3)c3cc(F)ccc32)nn1C [compound 2] | < 2 | 25 to 100 | > 5 | < 25 | < 2 | 25 to 100 | < 2 | 25 to 100 |  |  |  |  |  |  |  | 
6 | CC(C)(C)CCN1CCC2(CC[C@@H](NC(=O)C3CC3)c3ccccc32)CC1 [compound 3] | > 5 | < 25 | > 5 | < 25 | > 5 | < 25 | < 2 | 25 to 100 |  |  |  |  |  |  |  | 
7 | CCCCN1CCC2(CC[C@H](NC(C)=O)c3ccccc32)CC1 [compound 4] | > 5 | < 25 | > 5 | < 25 | 2 to 5 | 25 to 100 | 2 to 5 | 25 to 100 |  |  |  |  |  |  |  | 
8 | CCC(=O)N1CCCCC1C(=O)N[C@@H]1CCC2(CCN(CCC(C)(C)C)CC2)c2ccccc21 (some centres unmarked) [compound 5] | 2 to 5 | < 25 | > 5 | < 25 | 2 to 5 | < 25 | < 2 | 25 to 100 |  |  |  |  |  |  |  | 
9 | CC(C)(C)CCN1CCC2(CC[C@@H](N3CCCCC3=O)c3ccc(F)cc32)CC1 [compound 6] | > 5 | < 25 | > 5 | < 25 | > 5 | < 25 | < 2 | 25 to 100 |  |  |  |  |  |  |  | 
10 | CCN(C(=O)CC1CCCC1=O)[C@H]1CCC2(CCN(CCC(C)(C)C)CC2)c2ccccc21 (some centres unmarked) [compound 7] | > 5 | < 25 | > 5 | < 25 | 2 to 5 | 25 to 100 | < 2 | 25 to 100 |  |  |  |  |  |  |  | 
11 | C[C@H](N[C@H]1CC2(CCN(C(=O)OC(C)(C)C)CC2)c2ccccc21)c1ccccc1 [compound 275] |  |  |  |  |  |  |  |  | + (activity was measured to be greater than 5.0 μM) | < 25 |  |  | + (activity was measured to be greater than 5.0 μM) | < 25 | + (activity was measured to be greater than 5.0 μM) | < 25
